The values that follow come from the Kinase Knowledgebase extract (Sharma et al. 2016).

For one test, the target named is MAPK14 (human) (UniProt Q16539). Kind of test: Inhibition of MAPK14 Kinase Activity by PHAS-I Assay.
Chain of MAPK14 (human) (Q16539 whole entry, looked up): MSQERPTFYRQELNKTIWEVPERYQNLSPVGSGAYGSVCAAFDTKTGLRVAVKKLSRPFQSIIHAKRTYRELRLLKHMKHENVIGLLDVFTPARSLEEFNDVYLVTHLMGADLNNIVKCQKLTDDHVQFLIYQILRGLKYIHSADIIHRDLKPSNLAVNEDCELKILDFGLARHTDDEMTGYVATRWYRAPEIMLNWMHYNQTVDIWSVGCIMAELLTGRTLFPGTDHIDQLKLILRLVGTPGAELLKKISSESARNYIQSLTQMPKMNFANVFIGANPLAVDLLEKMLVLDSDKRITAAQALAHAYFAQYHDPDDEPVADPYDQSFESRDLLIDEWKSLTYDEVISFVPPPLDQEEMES
Settings: not given
By IC50 is commonly meant the point on the concentration scale where inhibition reaches its midpoint. Take `CCN(CC)C(=O)N[C@@H](Cc1ccccc1)c1[nH]nc(-c2ccc(F)cc2)c1-c1ccncc1`: the IC50 was found to be 2200 nM. Same read-out and setting: the figure for `O=C(N[C@H](Cc1ccccc1)c1[nH]nc(-c2ccc(F)cc2)c1-c1ccncc1)c1cnc2ccccc2n1` is 38100 nM. `CCOC(=O)N1CCC(Nc2n[nH]c(-c3ccc(Cl)cc3)c2-c2ccncc2)CC1` came in with an IC50 greater than 100000 nM. As to `O=C(Nc1ccccc1)N[C@@H](Cc1ccccc1)c1[nH]nc(-c2ccc(F)cc2)c1-c1ccncc1`, the IC50 came to 2600 nM.

`C[C@@H](NC(=O)NCc1[nH]nc(-c2ccc(F)cc2)c1-c1ccncc1)c1ccccc1` had an IC50 of 910 nM. Compared with the last compound, the IC50 is about 2.9-fold lower. With `CCCc1n[nH]c(-c2cccc([N+](=O)[O-])c2)c1-c1ccncc1`, the IC50 was found to be 12100 nM.

With `O=C(Nc1ccccc1F)N[C@H](Cc1ccccc1)c1[nH]nc(-c2ccc(F)cc2)c1-c1ccncc1`, the IC50 was 21000 nM.

Staying with this test, now noted: concentration not given here.
Broadly, the inhibition is the percentage by which the read-out fell short of the control. Consider `COc1ccc(S(=O)(=O)NCCCc2[nH]nc(-c3ccc(F)cc3)c2-c2ccncc2)cc1`, for which the inhibition stood at 71%. In turn, `O=C(NCCCc1[nH]nc(-c2ccc(F)cc2)c1-c1ccncc1)N1CCOCC1` came in with an inhibition of 82%. On the same count and under the same terms, as for `CCCCC(C)NC(=O)Cn1nc(-c2ccc(F)cc2)c(-c2ccncc2)c1C` (stereo not drawn), the figure is 75%; as for `CCCC(CCC)NC(=O)Cn1nc(-c2ccc(F)cc2)c(-c2ccncc2)c1C`, 77%; as for `Cc1c(-c2ccncc2)c(-c2ccc(F)cc2)nn1CC(=O)Nc1cc(C(F)(F)F)cc(C(F)(F)F)c1`, 79%. On to `Cc1ccc(C(=O)NCCCc2[nH]nc(-c3ccc(F)cc3)c2-c2ccncc2)cc1`, for which the inhibition is 86%. The compound `COc1ccc(S(=O)(=O)NCCCc2[nH]nc(-c3ccc(F)cc3)c2-c2ccncc2)cc1OC` registered an inhibition of 74%. In the case of `CNC(=O)NCCCc1[nH]nc(-c2ccc(F)cc2)c1-c1ccncc1`, the inhibition was determined as 84%.

As for `COC(=O)[C@H](CC(C)C)NC(=O)Cn1nc(-c2ccc(F)cc2)c(-c2ccncc2)c1C`, the inhibition came out at 47%. For `CC(C)OC(=O)NCCCc1[nH]nc(-c2ccc(F)cc2)c1-c1ccncc1`, the inhibition is 89%. Still for that read-out and setting: the figure for `CCOC(=O)CN(Cc1ccccn1)C(=O)Cn1nc(-c2ccc(F)cc2)c(-c2ccncc2)c1C` is 34%; for `Cc1c(-c2ccncc2)c(-c2ccc(F)cc2)nn1CC(=O)N(Cc1ccco1)CC(C)C` it is 48%; for `Cc1c(-c2ccncc2)c(-c2ccc(F)cc2)nn1CC(=O)N1Cc2ccsc2CC1c1ccc(Cl)cc1` (stereo not drawn) it is 33%. In the case of `CCN1CC(NC(=O)Cn2nc(-c3ccc(F)cc3)c(-c3ccncc3)c2C)CN1CC`, the inhibition amounted to 47%. As for `COC(=O)C(NC(=O)Cn1nc(-c2ccc(F)cc2)c(-c2ccncc2)c1C)C(C)C` (stereo not drawn), the inhibition was 82%. The same measure, in the same setting: the figure for `O=C(NCc1[nH]nc(-c2ccc(F)cc2)c1-c1ccncc1)c1cccc2ccccc12` is 91%. `Cc1c(-c2ccncc2)c(-c2ccc(F)cc2)nn1CC(=O)Nc1ccccc1Cl` returned an inhibition of 90%. As to `Cc1c(-c2ccncc2)c(-c2ccc(F)cc2)nn1CC(=O)Nc1ccccc1C(F)(F)F`, the inhibition was found to be 86%. Turning to `Cc1c(-c2ccncc2)c(-c2ccc(F)cc2)nn1CC(=O)Nc1ccc(Cl)cc1`, the inhibition stood at 88%.

As for `Cc1c(-c2ccncc2)c(-c2ccc(F)cc2)nn1CC(=O)Nc1ccccc1Cc1ccccc1`, the inhibition was determined as 92%. With `CN(C(=O)NCCCc1[nH]nc(-c2ccc(F)cc2)c1-c1ccncc1)c1ccccc1`, the inhibition was determined as 76%.

As to `COc1ccccc1C(=O)NCCCc1[nH]nc(-c2ccc(F)cc2)c1-c1ccncc1`, the inhibition is 68%. `COCCN(CC1CCCCC1)C(=O)Cn1nc(-c2ccc(F)cc2)c(-c2ccncc2)c1C`: the inhibition came out at 63%. Same read-out and setting: the figure for `Cc1c(-c2ccncc2)c(-c2ccc(F)cc2)nn1CC(=O)Nc1cccc(SC(F)(F)F)c1` is 82%; for `CCCCCCOc1ccc(NC(=O)Cn2nc(-c3ccc(F)cc3)c(-c3ccncc3)c2C)cc1` it is 80%; for `Cc1c(-c2ccncc2)c(-c2ccc(F)cc2)nn1CC(=O)N1CCSC1` it is 63%. Consider `CC(=O)OC(C)(C)C(=O)NCCCc1[nH]nc(-c2ccc(F)cc2)c1-c1ccncc1`, for which the inhibition was 74%. Turning to `O=C(NCCCc1[nH]nc(-c2ccc(F)cc2)c1-c1ccncc1)Nc1ccccc1`, the inhibition is 81%. As to `Cc1c(-c2ccncc2)c(-c2ccc(F)cc2)nn1CC(=O)NC1Cc2ccccc2C1`, the inhibition is 69%.

As to `O=S(=O)(NCCCc1[nH]nc(-c2ccc(F)cc2)c1-c1ccncc1)c1cccs1`, the inhibition is 84%. As to `Cc1c(-c2ccncc2)c(-c2ccc(F)cc2)nn1CC(=O)NCC(=O)Nc1ccccc1`, the inhibition was 86%. On to `Cc1ccc(C)c(C(=O)c2ccccc2NC(=O)Cn2nc(-c3ccc(F)cc3)c(-c3ccncc3)c2C)c1`, for which the inhibition was 84%. Turning to `Cc1c(-c2ccncc2)c(-c2ccc(F)cc2)nn1CC(=O)Nc1ccc(OCCOc2ccccc2)cc1`, the inhibition stood at 75%. On the same count and under the same terms, the figure for `O=C(NCCCc1[nH]nc(-c2ccc(F)cc2)c1-c1ccncc1)Nc1ccccc1F` is 86%; for `CCOC(=O)c1cc(-c2ccc(NC(=O)Cn3nc(-c4ccc(F)cc4)c(-c4ccncc4)c3C)cc2)oc1C` it is 87%. `Cc1cccc(C)c1NC(=O)NCCCc1[nH]nc(-c2ccc(F)cc2)c1-c1ccncc1` came in with an inhibition of 88%. On to `Cc1c(-c2ccncc2)c(-c2ccc(F)cc2)nn1CC(=O)NC1CCCc2ccccc21` (stereo not drawn), for which the inhibition turned out to be 76%. Regarding `O=C(NCCc1[nH]nc(-c2ccc(F)cc2)c1-c1ccncc1)C1CC1`, the inhibition amounted to 85%. Compound `CCCOC(=O)NCCc1[nH]nc(-c2ccc(F)cc2)c1-c1ccncc1` came in with an inhibition of 78%. Regarding `COc1cccc(NC(=O)NCCc2[nH]nc(-c3ccc(F)cc3)c2-c2ccncc2)c1`, the inhibition is 68%. With `Cc1c(-c2ccncc2)c(-c2ccc(F)cc2)nn1CC(=O)Nc1ccccc1C(C)C`, the inhibition amounted to 94%. The compound `Cc1c(-c2ccncc2)c(-c2ccc(F)cc2)nn1CC(=O)Nc1ccccc1SCCCc1ccccc1` returned an inhibition of 80%. For the compound `O=C(Cc1cccs1)NCCCc1[nH]nc(-c2ccc(F)cc2)c1-c1ccncc1`, the inhibition worked out at 90%. In the case of `CC(C)OC(=O)NCCc1[nH]nc(-c2ccc(F)cc2)c1-c1ccncc1`, the inhibition was 85%. Still for that read-out and setting: as for `CCN(CC)CCN(CCN(CC)CC)C(=O)Cn1nc(-c2ccc(F)cc2)c(-c2ccncc2)c1C`, the figure is 47%. Same read-out and setting: as for `CC(C)NC(=O)NCCCc1[nH]nc(-c2ccc(F)cc2)c1-c1ccncc1`, the figure is 81%; as for `Cc1c(-c2ccncc2)c(-c2ccc(F)cc2)nn1CC(=O)Nc1ccccc1`, 85%.

Turning to `CCOC(=O)CC(C)NC(=O)Cn1nc(-c2ccc(F)cc2)c(-c2ccncc2)c1C` (stereo not drawn), the inhibition worked out at 43%. In the case of `Cc1c(-c2ccncc2)c(-c2ccc(F)cc2)nn1CC(=O)NC1CCCCC1`, the inhibition is 49%. `COC(=O)[C@H](COCc1ccccc1)NC(=O)Cn1nc(-c2ccc(F)cc2)c(-c2ccncc2)c1C` had an inhibition of 76%. Still for that read-out and setting: the figure for `CC(C)C(=O)NCCCc1[nH]nc(-c2ccc(F)cc2)c1-c1ccncc1` is 79%; for `O=C(NCCCc1[nH]nc(-c2ccc(F)cc2)c1-c1ccncc1)C1CC1` it is 77%; for `C=CCOC(=O)NCCc1[nH]nc(-c2ccc(F)cc2)c1-c1ccncc1` it is 86%. Compound `Cc1c(-c2ccncc2)c(-c2ccc(F)cc2)nn1CC(=O)Nc1ccc(C2CCCCC2)cc1` showed an inhibition of 87%.

For the compound `O=C(NCCCc1[nH]nc(-c2ccc(F)cc2)c1-c1ccncc1)c1ccc(I)cc1`, the inhibition came out at 66%. In the case of `O=C(NCc1[nH]nc(-c2ccc(F)cc2)c1-c1ccncc1)c1cc(Cl)ccc1F`, the inhibition is 73%. Consider `O=C(NCCCc1[nH]nc(-c2ccc(F)cc2)c1-c1ccncc1)[C@H]1CCCN1`, for which the inhibition amounted to 81%.

In the case of `Cc1c(-c2ccncc2)c(-c2ccc(F)cc2)nn1CC(=O)N(C)Cc1ccccc1`, the inhibition worked out at 73%. Still for that read-out and setting: the figure for `CCN(CC)CC(C)NC(=O)Cn1nc(-c2ccc(F)cc2)c(-c2ccncc2)c1C` (stereo not drawn) is 46%. Turning to `CC(C)C(=O)NCCc1[nH]nc(-c2ccc(F)cc2)c1-c1ccncc1`, the inhibition came out at 75%. The compound `Cc1c(-c2ccncc2)c(-c2ccc(F)cc2)nn1CC(=O)Nc1cccc(F)c1` yielded an inhibition of 92%.

The compound `CC[C@H](C)[C@H](NC(=O)Cn1nc(-c2ccc(F)cc2)c(-c2ccncc2)c1C)C(=O)OC` had an inhibition of 38%. Same read-out and setting: as for `Cc1c(-c2ccncc2)c(-c2ccc(F)cc2)nn1CC(=O)Nc1ccc(OCc2ccccc2)cc1`, the figure is 82%.

The target is the same in the next test. Put plainly: Inhibition of LPS Stimulated TNF Production by U937 Cells.
Settings: not given
The compound `O=C(NCCCc1[nH]nc(-c2ccc(F)cc2)c1-c1ccncc1)NCCc1c[nH]cn1` returned a concentration for half-maximal inhibition (IC50) greater than 1000 nM. Still for that read-out and setting: as for `Cc1n[nH]c(-c2ccc3c(c2)OCO3)c1-c1ccncc1`, the figure is 1690 nM. The compound `COC(=O)CCC(=O)NCc1[nH]nc(-c2ccc(F)cc2)c1-c1ccncc1` gave a half-maximal inhibitory concentration (IC50) of 10000 nM.

`CN(C)CCn1cc(-c2ccnc(NCc3ccc(F)cc3)c2)c(-c2ccc(F)cc2)n1` had an IC50 of 920 nM. On to `CC(C)(C)c1ccc(S(=O)(=O)NCc2[nH]nc(-c3ccc(F)cc3)c2-c2ccncc2)cc1`, for which the concentration for half-maximal inhibition (IC50) is greater than 1000 nM. As for `O=S(=O)(c1ccccc1F)N1CCC(c2[nH]nc(-c3ccc(F)cc3)c2-c2ccncc2)CC1`, the IC50 was 5000 nM.

The test is the same for the next values; noted with them: concentration not given here.
For the compound `CCS(=O)(=O)N[C@@H](CCC(=O)NC)c1[nH]nc(-c2ccc(F)cc2)c1-c1ccncc1`, the inhibition worked out at 13%. The same measure, in the same setting: the figure for `C[C@@H](NC(=O)c1ccncc1)c1[nH]nc(-c2ccc(F)cc2)c1-c1ccncc1` is 36%.

Turning to `CCCCOc1ccc(S(=O)(=O)N[C@@H](C)c2[nH]nc(-c3ccc(F)cc3)c2-c2ccncc2)cc1`, the inhibition came out at 80%. `C[C@@H](NS(=O)(=O)C[C@@]12CC[C@H](CC1=O)C2(C)C)c1[nH]nc(-c2ccc(F)cc2)c1-c1ccncc1` came in with an inhibition of 61%.

The compound `O=S(=O)(c1ccc(-c2ccon2)s1)N1CCC(c2[nH]nc(-c3ccc(F)cc3)c2-c2ccncc2)CC1` had an inhibition of 3%. In turn, `O=C(NCc1[nH]nc(-c2ccc(F)cc2)c1-c1ccncc1)c1cnc2ccccc2n1` yielded an inhibition of 14%. Turning to `COc1ccc(Cl)cc1S(=O)(=O)N[C@H](C)c1[nH]nc(-c2ccc(F)cc2)c1-c1ccncc1`, the inhibition was found to be 87%.
